Source: patent US20080207724A1, “Use of Inhibitors of Histone Deacteylases in Combination With Compounds Acting as Nsaid for the Therapy of Human Diseases” (priority 2005, published 2008)

Legend:
Cox-2 [1] = assay: Cox-2 expression (Western blot / RT-PCR) in various cell types; format: cell-based, human; settings: for Expression of Cox-2 on RNA and protein level: several systems: A-549, SK-Mel, HT-29, MDA-MB-231, THP-1, primary human lymphocytes and macrophages, FIGS. 1 and 2
Experimental: In HT-29 colon carcinoma cells Cox-2 expression was induced by treatment with 100 ng/ml TNF-α for 4 h.
Cells were seeded at densities between 5×10^4 and 1×10^5 cells per well of 24 well plates. Lysis was done by removing growth medium and adding 200 μl of Laemmli sample buffer per well. 60 μl were loaded on 8% acrylamide gels and subjected to discontinuous electrophoresis. Proteins blotted onto PVDF membranes were probed with a goat-anti-Cox-2 antibody (St. Cruz, sc1747) or a mouse anti-pan-actin antibody (Ab-5, NeoMarkers).
(§1) In detail, cells were seeded at a density of 7,5×10^4 per well in 24 well plates. Supernatants were analyzed in a dilution of 1:3 in duplicates with the prostaglandin E2 EIA Kit from Cayman according to the manufacture's instructions. Bars show the mean of two values. Cell extracts were prepared by removing growth medium completely and adding of 200 μl of Laemmli Sample buffer per well. Subsequently, 60 μl were loaded on 8% acrylamide gels and subjected to discontinuous electrophoresis.

prostaglandin E2 = assay: Prostaglandin levels in liver extracts of APCmin mice (ex vivo cyclooxygenase activity); design: species or system mouse; settings: liver taken 3 hours after final dose, same treatment as adenoma study, FIG. 5b
Experimental: (§2) Control animals were injected (i.p.) with PBS. […] At sacrifice entire intestinal tracts were opened longitudinally and fixed in 10% phosphate buffered formaldehyde for 24 hours followed by ethanol-fixation in 50% ethanol for three days. […] Cyclooxygenase activity was assessed ex vivo in hepatic tissue as described (Reuter et al., 2002; BMC Cancer 2:19). Briefly, mice were euthanized 3 hours following the final dose of vehicle or drugs and a sample of liver tissue (−100 mg) was obtained. The samples were then placed into microcentrifuge tubes containing 1 ml of sodium phosphate buffer (10 mM, pH 7.4) and finely minced with scissors for 15 seconds. Samples were then incubated for 20 min at […] in a shaking water bath. After the incubation period, samples were centrifuged at 9000×g for 30 seconds and the supernatants collected. Supernatants were flash frozen in liquid nitrogen and stored at […] for subsequent determination of prostaglandin E2 content. PGE2 concentrations were determined in duplicates after 1:20 dilution of supernatants using a commercially available competitive Enzyme Immunoassay (Cayman Chemical).

COX-2 RNA = assay: Semi quantitative RT-PCR of COX-2 RNA in LPS-induced THP-1 cells; format: cell-based, human; settings: THP-1 cells differentiated with TPA; 1 mM VPA or 10 μM G2M-707 over night, then 10 μg/ml LPS 6 h; FIG. 1A
Experimental: (§3) THP-1 cells were induced to differentiate by addition of 20 ng/ml TPA to the growth medium for 3d. Adherent cells were seeded at a density of 5×10^5 cells per well of a 6-well plate, and were incubated with 1 mM VPA or 10 μM G2M-707 over night (FIG. 1A). Cox-2 expression was then induced by addition of 10 μg/ml LPS for 6 h. RNA was prepared using the RNeasy Kit from Qiagen according to the manufacturer's instructions. Reverse transcription was done with 1 μg of RNA in a volume of 20 μl. 1 μl was used for each PCR reaction with specific primers for the indicated genes.

TNF-α = assay: Acute LPS-induced inflammation model, serum TNF-α ELISA; format: in vivo; settings: 3H1 mice; i.p. 1 h before LPS (50 μg per mouse); blood 1 h after LPS; VPA 400 mg/kg/d, G2M-707 1 mg/mouse/d; FIG. 6 lower panel
Experimental: To evaluate the ability of HDAC inhibitors to inhibit soluble TNF-α secretion in vivo, an acute LPS-induced inflammation model in 3H1 mice was used. The mice were injected i.p. with substances tested 1 h before the i.p. injection of LPS. Blood samples were drawn 1 h after LPS stimulus and the TNF-α levels in the serum were determined using a TNF-α ELISA assay. As shown in FIG. 6 (lower panel), VPA and G2M-707 pretreatment led to a 60% reduction in absolute TNF-α serum levels in comparison to the control mice.
In detail, mice were treated with VPA (400 mg/kg/d, n=8), G2M-701 (1 mg/mouse/d, n=4), G2M-707 (1 mg/mouse/d, n=4) or with 200 μl PBS (control, n=8) 1 h before inflammation was induced with 50 μg LPS (Sigma) per mouse. One hour after the LPS treatment, blood was taken by cardiac puncture and serum was isolated. The serum was tested in a TNF-α sandwich ELISA module from Bender MedSystems. The assay was performed as described in the manufacturer's manual. ABTS was used as a substrate and measuring was accomplished with a 96-well plate reader at a wavelength of 405 nm. Absolute OD levels at 405 nm are given.

[2] = system: MDA-MB-231 mammary carcinoma cells; assay: Prostaglandin secretion, Celecoxib plus HDAC inhibitor, MDA-MB-231 cells; format: cell-based, human; settings: in combination with Celecoxib, FIG. 4
Experimental: as §1

[3] = system: collagen induced arthritis in DBA/1 mice; assay: Therapeutic collagen induced arthritis (CIA) model, clinical severity score; format: in vivo; settings: DBA/1 mice with CIA, 15 days; VPA 2×400 mg/kg/d i.p., G2M-707 2×1 mg/mouse/d i.p.; versus control group; FIG. 6 upper panel
Experimental: To evaluate this anti-inflammatory potency of HDAC inhibitors in a therapeutic in vivo inflammation model we applied VPA and G2M-707 to mice that had developed collagen induced arthritis (CIA).
Prednisolon, a corticosteroid drug in clinical use for RA, was used as a positive control in this study.
In detail, in this therapeutic CIA model, DBA/1 female mice of age 7 weeks were immunized with 100 μg of chicken type II collagen (Chondrex) in CFA. Development of arthritis started 21 to 28 days after immunization and reached an incidence of 93% after 6 weeks. The severity was medium to high and reached a mean score of 10.3 (maximum score 15) in untreated animals. The mice were monitored daily for signs of arthritis using an established scoring system. At the first sign of arthritis, the affected mice were assigned to a treatment group. The mice were treated for 15 days with vehicle control or VPA at 2×400 mg/kg/d i.p. or G2M-707 at 2×1 mg/mouse/d i.p. or Prednisolon at 2×20 mg/kg/d (i.p.). Clinical severity of arthritis was assessed based on the appearance of each paw and subjectively graded on a scale of 0 to 4. The scores of each limb were summed, giving a maximum severity score of 16. […] After onset of disease the animals were scored 3 times a week.

Cox-2 [4] = assay: Semi quantitative RT-PCR of Cox-2 in peripheral blood lymphocytes of VPA-treated patients; format: in vivo, human; settings: patients treated with 30 mg/kg/d or 120 mg/kg/d VPA; control gene GAPDH unchanged; FIG. 1B
Experimental: Semi quantitative RT-PCR was also performed with RNA isolated form peripheral blood lymphocytes of patients treated with doses 30 mg/kg/d (Patient 1) or 120 mg/kg/d VPA (Patient 2) respectively.

[5] = system: adenomas in C57BL/6J-APCmin/+ mice; assay: Adenoma number in the APCmin mouse model; format: in vivo; settings: four weeks, VPA sodium salt 2×400 mg/kg/day i.p., Celecoxib 1250 ppm in diet, combination same dosages, FIG. 5A
Experimental: as §2

TNF-α, IFN-γ and IL-6 = assay: Semi quantitative RT-PCR of cytokine RNA in LPS-induced THP-1 cells; format: cell-based, human; settings: THP-1 cells differentiated with TPA; 1 mM VPA or 10 μM G2M-707 over night, then 10 μg/ml LPS 6 h; FIG. 1A
Experimental: as §3

THP-1 monocytes = assay: Prostaglandin secretion, Celecoxib plus HDAC inhibitor, THP-1 monocytes; format: cell-based, human; settings: in combination with Celecoxib, FIG. 4
Experimental: In parallel, Cox-2 protein levels were reduced as already described.
as §1, with “electrophoresis. Proteins blotted onto PVDF membranes which were probed with a goat anti-Cox-2 antibody (St. Cruz, scl 747) or a mouse anti-pan-actin (to analyze the expression of this control protein) antibody (Ab-5, NeoMarkers).” for “electrophoresis.”

SMILES | Cox-2 protein levels (Cox-2 [1]; MDA-MB-231 cells, VPA together with Celecoxib, FIG. 4) | Expression of Cox-2 on RNA and protein level (Cox-2 [1]) | prostaglandin levels in liver extracts (prostaglandin E2) | COX-2 RNA (COX-2 RNA) | reduction in absolute TNF-α serum levels in comparison to the control mice (TNF-α) [%] | repression of prostaglandin secretion by Celecoxib, HDAC inhibitor added [2] | clinical severity scores (sum score) [3] | Cox-2 RNA in peripheral blood lymphocytes of patients (Cox-2 [4]) | number of adenomas [5] | TNF-α, IFN-γ and IL-6 RNA (TNF-α, IFN-γ and IL-6) | prostaglandin levels, HDAC inhibitor added to Celecoxib (THP-1 monocytes)
CCCC(CCC)C(=O)O [VPA, 2-propyl-pentanoic acid] | reduced | downregulated | decrease | downregulation | 60 | dose dependently enhance | efficiently reduced | downregulation | significantly reduces | downregulation | 
CC(/C=C/C(=O)NO)=C\[C@@H](C)C(=O)c1ccc(N(C)C)cc1 [TSA, Trichostatin A] |  | downregulated |  |  |  |  |  |  |  |  | reduce the prostaglandin levels further
